According to ChEMBL document CHEMBL1151493, “Cholestane glycosides with potent cytostatic activities on various tumor cells from Ornithogalum saundersiae bulbs” (Bioorg Med Chem Lett, 1997):
Values after ≈ are worked out from the molar mass of the structure shown.

Legend:
HL-60 [1] = assay: Tested for the cytostatic activity as inhibitory concentration against leukemia HL-60 cells; assay type: functional, cell-based; settings: Homo sapiens
CCRF-CEM = assay: Tested for the cytostatic activity as inhibitory concentration against CCRF-CEM human leukemia cells; assay type: functional, cell-based
Lu-99 cell line = assay: Tested for the cytostatic activity as inhibitory concentration against Lu-99 human pulmonary large cell carcinoma; assay type: functional, cell-based
P388 = assay: Tested for the cytostatic activity as inhibitory concentration against P-388 mouse leukemia cells; assay type: functional, cell-based
CCD 19Lu = assay: Tested for the cytostatic activity as inhibitory concentration against CCD-19Lu (human normal pulmonary) cells; assay type: functional, cell-based
P388CPT = assay: Tested for the cytostatic activity as inhibitory concentration against camptothecin resistant P-388 mouse leukemia cells; assay type: functional, cell-based
FM3A = assay: Tested for the cytostatic activity as inhibitory concentration against FM3A mouse mastrocarcinoma cells; assay type: functional, cell-based
A549 = assay: Tested for the cytostatic activity as inhibitory concentration against A-549 human pulmonary adenocarcinoma cells; assay type: functional, cell-based
Lu-65 = assay: Tested for the cytostatic activity as inhibitory concentration against Lu-65 human pulmonary large cell carcinoma; assay type: functional, cell-based
HL-60 [2] = assay: Tested in vitro for cytostatic activity against 60-cell line; assay type: functional, Homo sapiens
P388/ADM = assay: Tested for the cytostatic activity as inhibitory concentration against adriamycin resistant P-388 mouse leukemia cells; assay type: functional, cell-based
RERF-LC-AI = assay: Tested for the cytostatic activity as inhibitory concentration against RERF-LC-AI human pulmonary squamous cell carcinoma; assay type: functional, cell-based
Mus musculus = assay: Increased life span against mouse P388 leukemic cells after 0.01 mg/kg administration in mice; assay type: functional
NCI-60 panel = assay: Tested in vitro for cytostatic activity against 60-cell line; settings: Homo sapiens
Homo sapiens = species on record: Homo sapiens; assay: Tested for hemolytic activity in human erythrocytes at 100 ug/ml; Not hemolytic; assay type: functional
[3] = Homo sapiens, CCRF-CEM, read-out: IC50
[4] = Homo sapiens, Lu-99, read-out: IC50
[5] = Mus musculus, P388, read-out: IC50
[6] = Homo sapiens, CCD 19Lu, read-out: IC50

Compound	IC50 (HL-60 [1]) [nM]	IC50 (CCRF-CEM; [3]) [ng/mL]	IC50 (Lu-99 cell line; [4]) [ng/mL]	IC50 (P388; [5]) [ng/mL]	IC50 (CCD 19Lu; [6]) [ng/mL]	also measured
COc1ccc(C(=O)O[C@@H]2[C@H](O[C@H]3[C@@H](OC(C)=O)[C@H](O[C@H]4C[C@H]5[C@@H]6CC=C7C[C@@H](O[C@@H]8O[C@@H](CO)[C@@H](O)[C@H](O)[C@@H]8O)CC[C@]7(C)[C@H]6CC[C@]5(C)[C@@]4(O)[C@H](C)C(=O)CCC(C)C)OC[C@@H]3O)OC[C@@H](O)[C@@H]2O)cc1	0.24					
CC[C@@]1(O)C(=O)OCc2c1cc1n(c2=O)Cc2cc3ccccc3nc2-1 [CAMPTOTHECIN]		5 (≈ 14.4 nM)	1 (≈ 2.87 nM)	5 (≈ 14.4 nM)	2000 (≈ 5740 nM)	
CC(=O)O[C@H]1C(=O)[C@@]2(C)[C@H]([C@H](OC(=O)c3ccccc3)[C@]3(O)C[C@H](OC(=O)[C@H](O)[C@@H](NC(=O)c4ccccc4)c4ccccc4)C(C)=C1C3(C)C)[C@]1(OC(C)=O)CO[C@@H]1C[C@@H]2O [PACLITAXEL]		1 (≈ 1.17 nM)	2 (≈ 2.34 nM)	10 (≈ 11.7 nM)	2000 (≈ 2340 nM)	
COc1cccc2c1C(=O)c1c(O)c3c(c(O)c1C2=O)C[C@@](O)(C(=O)CO)C[C@@H]3O[C@H]1C[C@H](N)[C@H](O)[C@H](C)O1 [DOXORUBICIN]		10 (≈ 18.4 nM)	2 (≈ 3.68 nM)	3 (≈ 5.52 nM)	2000 (≈ 3680 nM)	
COc1ccc(C(=O)O[C@@H]2[C@H](O[C@H]3[C@@H](OC(C)=O)[C@H](O[C@H]4C[C@H]5[C@@H]6CC=C7C[C@@H](O)CC[C@]7(C)[C@H]6CC[C@]5(C)[C@@]4(O)[C@H](C)C(=O)CCC(C)C)OC[C@@H]3O)OC[C@@H](O)[C@@H]2O)cc1	0.25	0.16 (≈ 0.183 nM)	0.2 (≈ 0.229 nM)	0.13 (≈ 0.149 nM)	1500 (≈ 1720 nM)	IC50 (P388CPT): 0.1 ng/mL (≈ 0.115 nM); IC50 (FM3A): 0.16 ng/mL (≈ 0.183 nM); IC50 (A549): 0.68 ng/mL (≈ 0.779 nM); IC50 (Lu-65): 0.2 ng/mL (≈ 0.229 nM); IC100 (HL-60 [2]): 58 nM; IC50 (P388/ADM): 0.77 ng/mL (≈ 0.882 nM); IC50 (RERF-LC-AI): 0.26 ng/mL (≈ 0.298 nM); ILS at 0.01 mg/kg (Mus musculus): 59%; IC50 (NCI-60 panel): 0.78 nM; Activity (Homo sapiens): Not hemolytic
CC(=O)O[C@H]1[C@H](O[C@H]2C[C@H]3[C@@H]4CC=C5C[C@@H](O[C@@H]6O[C@@H](CO)[C@@H](O)[C@H](O)[C@@H]6O)CC[C@]5(C)[C@H]4CC[C@]3(C)[C@@]2(O)[C@H](C)C(=O)CCC(C)C)OC[C@H](O)[C@H]1O[C@@H]1OC[C@@H](O)[C@H](O)[C@@H]1OC(=O)/C=C/c1ccccc1	0.12					
CC(=O)O[C@H]1[C@H](O[C@H]2C[C@H]3[C@@H]4CC=C5C[C@@H](O)CC[C@]5(C)[C@H]4CC[C@]3(C)[C@@]2(O)[C@H](C)C(=O)CCC(C)C)OC[C@H](O)[C@H]1O[C@@H]1OC[C@@H](O)[C@H](O)[C@@H]1OC(=O)/C=C/c1ccccc1	0.29					
CISPLATIN						IC50 (CCRF-CEM; ccrf-cem): 5 ng/mL; IC50 (Lu-99 cell line; lu-99): 1 ng/mL; IC50 (P388; p388): 50 ng/mL; IC50 (CCD 19Lu; ccd 19lu): 10000 ng/mL
CC(C)CCC(=O)[C@@H](C)[C@@]1(O)[C@@H](O[C@@H]2OC[C@H](O)[C@@H](O[C@@H]3OC[C@@H](O)[C@H](O)[C@@H]3O)[C@H]2O)C[C@H]2[C@@H]3CC=C4C[C@@H](O)CC[C@]4(C)[C@H]3CC[C@@]21C	190					
CO[C@@]12[C@H](COC(N)=O)C3=C(C(=O)C(C)=C(N)C3=O)N1C[C@@H]1N[C@@H]12 [MITOMYCIN]		20 (≈ 59.8 nM)	10 (≈ 29.9 nM)	10 (≈ 29.9 nM)	2000 (≈ 5980 nM)	
COc1ccc(C(=O)O[C@@H]2[C@H](O[C@H]3[C@@H](OC(C)=O)[C@H](O[C@H]4C[C@H]5[C@@H]6CC=C7C[C@@H](O)CC[C@]7(C)[C@H]6CC[C@]5(C)[C@]4(O)[C@H](C)C(=O)CCC(C)C)OC[C@@H]3O)OC[C@@H](O)[C@@H]2O)cc1OC	0.2					
